Data published in ChEMBL document CHEMBL1201862, “PubChem BioAssay data set” (2004).
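Interpolation was linear, between the two tested concentrations surrounding the appropriate level; five concentrations were tested over 48 hours in 96-well plates. GI50 marks 50% less growth.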 The source made the active and inactive calls. Rule as the data show it: active = GI50 up to about 1.1 µM and inactive = higher.

Experiments:
Test in all cases: growth of human tumour cells (NCI), 48 h
[1] = system: NCI-H23
[2] = system: RPMI-8226
[3] = system: OVCAR-5
[4] = system: ACHN
[5] = system: KM12
[6] = system: HT-29
[7] = system: CCRF-CEM
[8] = system: SNB-75
[9] = system: RXF 393
[10] = system: LOX IMVI
[11] = system: SK-MEL-2
[12] = system: SR
[13] = system: T47D
[14] = system: NCI-H460
[15] = system: OVCAR-4
[16] = system: SF-295
[17] = system: SK-MEL-5
[18] = system: HOP-92
[19] = system: OVCAR-8

Measured: GI50

CCOC(=O)NC(Nc1ncccn1)(C(F)(F)F)C(F)(F)F
inactive: [1] > 100 µM | [2] > 100 µM | [3] > 100 µM | [4] > 100 µM | [5] > 100 µM | [6] > 100 µM | [7] > 100 µM | [8] > 100 µM | [9] > 100 µM | [10] > 100 µM | [11] > 100 µM | [12] > 100 µM | [13] > 100 µM | [14] > 100 µM

O=C1C=CC(CC(=O)c2ccc3ccccc3c2)O1 (centres undefined)
inactive: [1] 20.7 µM | [3] 25.4 µM | [4] 37.3 µM | [15] 24.9 µM | [16] > 100 µM | [5] 17.5 µM | [17] 59.3 µM | [6] 19.1 µM | [7] 23.2 µM | [8] 37.8 µM | [9] 20.5 µM | [10] 21 µM | [11] 23.8 µM | [12] 30.3 µM | [18] 28 µM | [19] 18.4 µM | [14] 24.2 µM

O=c1[nH]cnc(NC2C=C(CO)C(O)C2O)c1[N+](=O)[O-] (centres undefined)
inactive: [1] > 100 µM | [2] > 45.9 µM | [3] > 100 µM | [4] > 100 µM | [15] > 100 µM | [16] > 100 µM | [5] > 100 µM | [17] > 100 µM | [6] > 100 µM | [7] > 71.1 µM | [8] > 100 µM | [9] > 100 µM | [10] > 41.2 µM | [11] > 100 µM | [12] > 100 µM | [18] > 100 µM | [19] > 100 µM | [14] > 40.1 µM

CN(C)CCNC(=O)c1cccc2ncc(-c3ccccc3)nc12
inactive: [1] 14.6 µM | [3] 9.04 µM | [4] 5.35 µM | [15] 8.77 µM | [16] 14.2 µM | [5] 11.8 µM | [17] 11.5 µM | [6] 6.17 µM | [7] 8.99 µM | [8] 17.5 µM | [9] 5.86 µM | [10] 7.66 µM | [11] 14.6 µM | [12] 1.9 µM | [18] 18.7 µM | [19] 7.52 µM | [14] 4.41 µM

CCOP1(=O)C=C(C)C(Cl)=C(C)C1 (centres undefined)
inactive: [1] 22.9 µM | [2] 18.9 µM | [3] 43.9 µM | [4] 24.6 µM | [15] 24.2 µM | [16] 47.1 µM | [5] 15.8 µM | [17] 23.1 µM | [6] 24.5 µM | [7] 17.6 µM | [8] 15.4 µM | [9] 29.7 µM | [10] 20.4 µM | [11] 8.91 µM | [12] 27.2 µM | [18] 19.6 µM | [19] 30 µM | [14] 39.2 µM

Cc1ccccc1NC(=O)C1C(=O)N(c2ccccc2C)C(=O)/C1=N\N (centres undefined)
inactive: [1] > 100 µM | [2] > 100 µM | [3] > 100 µM | [4] > 100 µM | [15] > 100 µM | [16] > 100 µM | [5] > 100 µM | [17] > 100 µM | [6] > 100 µM | [7] > 100 µM | [8] > 100 µM | [9] > 100 µM | [10] > 100 µM | [11] > 100 µM | [12] > 100 µM | [18] > 100 µM | [19] > 100 µM | [14] > 100 µM

Cc1cccc(C(C)(C)C)c1NC(=O)C(=O)C(c1cnc2ccccc2n1)[N+](=O)[O-] (centres undefined)
inactive: [1] > 100 µM | [2] 60.3 µM | [3] > 100 µM | [4] > 100 µM | [15] > 100 µM | [16] > 100 µM | [5] > 100 µM | [17] > 100 µM | [6] > 100 µM | [7] 32.1 µM | [8] > 100 µM | [9] > 100 µM | [10] > 100 µM | [11] > 100 µM | [12] > 100 µM | [18] > 100 µM | [19] > 100 µM | [14] 62.2 µM

O=C(/C=C/c1ccccc1O)c1cccc2ccccc12
inactive: [1] 60.7 µM | [2] 20.3 µM | [3] > 100 µM | [4] > 100 µM | [15] 56.8 µM | [16] > 100 µM | [5] 40.3 µM | [17] > 100 µM | [6] > 66.5 µM | [7] 18.2 µM | [8] 48.8 µM | [9] 43.2 µM | [10] > 53.5 µM | [11] > 100 µM | [12] 31.3 µM | [18] > 52.2 µM | [19] > 71 µM | [14] > 84.1 µM

CN(C)c1n/c(=N/c2ncn[nH]2)ss1
inactive: [1] > 100 µM | [2] > 100 µM | [3] > 100 µM | [4] > 100 µM | [15] > 100 µM | [16] > 100 µM | [5] > 100 µM | [17] > 100 µM | [6] > 100 µM | [7] > 100 µM | [8] > 100 µM | [9] > 100 µM | [10] > 100 µM | [11] > 100 µM | [12] > 100 µM | [18] > 100 µM | [19] > 100 µM | [14] > 100 µM

C/C(=N/NC(=S)NCCc1ccccn1)c1cnccn1
inactive: [1] 38.6 µM | [2] 13.3 µM | [3] 79.3 µM | [4] 20.7 µM | [15] 24.4 µM | [16] 24.4 µM | [5] 36.9 µM | [17] 27 µM | [6] 3.78 µM | [7] 2.64 µM | [8] > 100 µM | [10] 9.66 µM | [11] > 100 µM | [12] 2.44 µM | [18] 49.3 µM | [13] 6.05 µM | [14] 52.5 µM

OC(c1cc2ccccc2[nH]1)C(O)(c1cc2ccccc2[nH]1)c1cc2ccccc2[nH]1 (centres undefined)
inactive: [1] 5.83 µM | [2] 7.11 µM | [3] 57.8 µM | [4] 18.6 µM | [16] 7.23 µM | [5] 8 µM | [17] 11.6 µM | [6] 9.18 µM | [7] 12.3 µM | [9] 7.18 µM | [10] 10.8 µM | [11] 17.9 µM | [12] 7.69 µM | [18] 14.9 µM | [19] 15.9 µM | [14] 14.4 µM

Cc1ccc(SCC(=O)C2=C(O)CCCC2=O)cc1
inactive: [1] > 100 µM | [2] > 100 µM | [3] > 100 µM | [4] > 100 µM | [15] > 100 µM | [16] > 100 µM | [5] > 100 µM | [17] > 100 µM | [6] > 100 µM | [7] 40.6 µM | [8] > 100 µM | [9] > 100 µM | [10] > 100 µM | [11] > 100 µM | [12] > 100 µM | [18] > 100 µM | [19] > 100 µM | [14] > 100 µM

CC1C2CC=CC(=O)[C@@]2(C)CCC12OCCO2 (some centres undefined)
inactive: [1] > 100 µM | [3] > 100 µM | [4] > 100 µM | [15] > 100 µM | [16] > 100 µM | [5] > 100 µM | [17] 24.6 µM | [6] > 100 µM | [7] > 100 µM | [8] 97.3 µM | [9] > 100 µM | [11] > 100 µM | [12] > 100 µM | [18] > 100 µM | [19] > 100 µM | [14] > 100 µM

C=C1C(=O)O[C@@H]2[C@H]1CCC(C)=C1C=CC(=O)[C@]12C
inactive: [1] > 10 µM | [2] 6.67 µM | [3] 17.9 µM | [4] 16.1 µM | [16] 17 µM | [5] 12.4 µM | [17] 13.9 µM | [6] 10.9 µM | [7] 3.15 µM | [8] 18.9 µM | [9] 14.4 µM | [11] 20.7 µM | [12] 13.6 µM | [18] 6.22 µM | [19] 17.3 µM | [14] 19.4 µM

O=C1c2cccc(O)c2C(=O)c2c(O)cc(CO)cc21 [ALOE-EMODIN]
inactive: [1] > 100 µM | [2] 31.5 µM | [3] > 100 µM | [4] 32.7 µM | [15] 77.8 µM | [16] 96.2 µM | [5] 40.2 µM | [17] 15.8 µM | [6] 30.9 µM | [7] 31.3 µM | [8] 72.8 µM | [9] > 100 µM | [10] 26.2 µM | [11] 91.8 µM | [12] 32.9 µM | [18] > 100 µM | [14] 29.4 µM

CCC1(c2ccncc2)CCC(=O)NC1=O (centres undefined) [ROGLETIMIDE]
inactive: [1] > 100 µM | [2] > 100 µM | [3] > 100 µM | [4] > 100 µM | [15] > 100 µM | [16] > 100 µM | [5] > 100 µM | [17] > 100 µM | [6] > 100 µM | [7] > 100 µM | [8] > 100 µM | [9] > 100 µM | [10] > 100 µM | [11] > 100 µM | [12] > 100 µM | [18] 52.4 µM | [19] > 100 µM | [14] > 100 µM
